Among the data in BindingDB's records for doi:10.1016/s0968-0896(99)00306-5 (University of Bologna, 2000) are IC50 and Ki values, retold here.

The target of one test is Cholinesterase (Homo sapiens, UniProt P06276). The test is described as follows: Cholinesterase Inhibition Assay. As to conditions: pH 8; 37 °C. As for the experimental part:
(§1) The cholinesterase assays were performed using colorimetric method reported by Ellman. The absorbance changes at 412 nm were recorded for 5 min with a Jasco Uvidec-610 double beam Spectrophotometer. The reaction rates were compared and the percent inhibition due to the presence of test compounds was calculated. Inhibition curve was obtained for each compound.

A further test concerns the target Acetylcholinesterase (Homo sapiens, UniProt P22303). The test is described as follows: Cholinesterase Inhibition Assay. As for the experimental part:
as §1

Each structure is given as a SMILES string.

Sequence of Acetylcholinesterase (P22303 whole entry): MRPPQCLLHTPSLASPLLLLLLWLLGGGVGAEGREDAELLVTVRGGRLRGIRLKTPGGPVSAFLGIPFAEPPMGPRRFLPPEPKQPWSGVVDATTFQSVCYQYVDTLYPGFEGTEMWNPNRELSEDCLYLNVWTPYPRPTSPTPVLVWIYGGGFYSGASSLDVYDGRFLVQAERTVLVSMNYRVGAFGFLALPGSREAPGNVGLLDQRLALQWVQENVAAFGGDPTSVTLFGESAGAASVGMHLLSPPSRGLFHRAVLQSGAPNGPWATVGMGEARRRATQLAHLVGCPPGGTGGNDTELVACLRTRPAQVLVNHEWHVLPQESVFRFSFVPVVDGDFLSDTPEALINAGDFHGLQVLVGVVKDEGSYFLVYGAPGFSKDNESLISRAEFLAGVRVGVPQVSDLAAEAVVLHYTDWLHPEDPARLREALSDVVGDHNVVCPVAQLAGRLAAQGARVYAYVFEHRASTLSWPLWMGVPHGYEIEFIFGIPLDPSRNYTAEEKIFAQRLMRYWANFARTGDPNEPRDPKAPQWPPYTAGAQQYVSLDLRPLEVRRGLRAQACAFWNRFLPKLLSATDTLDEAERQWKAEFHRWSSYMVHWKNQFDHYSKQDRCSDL
Sequence of Cholinesterase (P06276 whole entry): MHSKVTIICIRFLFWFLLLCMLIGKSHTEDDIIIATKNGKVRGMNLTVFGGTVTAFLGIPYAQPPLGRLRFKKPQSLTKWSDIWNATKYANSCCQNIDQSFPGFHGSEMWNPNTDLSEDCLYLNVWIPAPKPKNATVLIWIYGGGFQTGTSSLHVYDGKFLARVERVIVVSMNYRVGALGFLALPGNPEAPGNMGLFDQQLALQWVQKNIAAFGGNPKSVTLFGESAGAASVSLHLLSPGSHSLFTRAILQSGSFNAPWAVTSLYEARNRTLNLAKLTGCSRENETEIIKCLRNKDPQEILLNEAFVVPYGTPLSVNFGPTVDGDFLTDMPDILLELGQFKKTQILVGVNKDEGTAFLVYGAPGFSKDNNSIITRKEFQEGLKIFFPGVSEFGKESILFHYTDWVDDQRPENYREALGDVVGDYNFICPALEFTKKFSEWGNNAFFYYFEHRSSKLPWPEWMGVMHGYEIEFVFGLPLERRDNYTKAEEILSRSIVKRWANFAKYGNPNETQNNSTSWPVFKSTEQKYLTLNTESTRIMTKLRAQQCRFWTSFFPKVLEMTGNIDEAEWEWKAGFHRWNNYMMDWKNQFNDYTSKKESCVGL

Turning to `Nc1c2c(nc3ccccc13)-c1ccccc1C2`, the half-maximal inhibitory concentration (IC50) (usually the concentration that inhibits the measured activity by half) against Cholinesterase came out at 4.7 µM. Further, the Ki (as a rule, a measure of affinity in units of concentration, obtained from inhibition or displacement) at Acetylcholinesterase was 0.21 µM.

As to `Nc1c2c(nc3ccc([N+](=O)[O-])cc13)-c1ccccc1C2` [2-nitro-10H-indeno[1,2-b]quinolin-11-amine], the concentration for half-maximal inhibition (IC50) against Acetylcholinesterase was > 100 µM.

With `Nc1c2c(nc3cc(Cl)ccc13)-c1ccccc1C2` [3-chloro-10H-indeno[1,2-b]quinolin-11-amine], half-maximal inhibition against Acetylcholinesterase (IC50) required 6.5 µM.

Consider `Nc1c2c(nc3cc(F)ccc13)-c1ccccc1C2` [3-fluoro-10H-indeno[1,2-b]quinolin-11-amine], for which the results for the IC50 against Cholinesterase and on Acetylcholinesterase were 5.7 µM and 1.2 µM, respectively.

`Nc1c2c(nc3cc([N+](=O)[O-])ccc13)-c1ccccc1C2` [3-nitro-10H-indeno[1,2-b]quinolin-11-amine]: the IC50 against Acetylcholinesterase stood at 67.5 µM.

For the compound `COc1ccc2c(c1)-c1nc3ccccc3c(N)c1C2` [7-methoxy-10H-indeno[1,2-b]quinolin-11-amine], at Acetylcholinesterase, the IC50 was 4.3 µM.

At Acetylcholinesterase, `Cc1ccc2c(c1)-c1nc3ccccc3c(N)c1C2` [7-methyl-10H-indeno[1,2-b]quinolin-11-amine] displayed a half-inhibitory concentration (IC50) of 4.6 µM.

On Acetylcholinesterase, `Nc1c2c(nc3ccccc13)-c1ccc(Cl)cc1C2` [8-chloro-10H-indeno[1,2-b]quinolin-11-amine] displayed an IC50 of 5.4 µM.

As to `Nc1c2c(nc3ccccc13)-c1ccc(F)cc1C2` [8-fluoro-10H-indeno[1,2-b]quinolin-11-amine], the IC50 came out at 7.1 µM on Cholinesterase and 0.43 µM against Acetylcholinesterase.

Regarding `COc1ccc2c(c1)Cc1c-2nc2ccccc2c1N` [8-methoxy-10H-indeno[1,2-b]quinolin-11-amine], inhibition against Acetylcholinesterase was half-maximal at 6.5 µM (IC50).

Turning to `COc1cccc2c1Cc1c-2nc2ccccc2c1N` [9-methoxy-10H-indeno[1,2-b]quinolin-11-amine], the concentration for half-maximal inhibition (IC50) on Cholinesterase is 3 µM; against Acetylcholinesterase it was 1.6 µM.

Compound `Cc1cccc2c1Cc1c-2nc2ccccc2c1N` [9-methyl-10H-indeno[1,2-b]quinolin-11-amine] showed an IC50 against Acetylcholinesterase of 3.9 µM.

Regarding `Nc1ccc2c(N)c3c(nc2c1)-c1ccccc1C3` [11H-Indeno-[1,2-b]-quinolin-7,10-diamine], at Acetylcholinesterase, the IC50 was determined as 29 µM.

As for `Nc1ccc2nc3c(c(N)c2c1)Cc1ccccc1-3` [11H-Indeno-[1,2-b]-quinolin-8,10-diamine], at Acetylcholinesterase, the IC50 is 5.9 µM.

In the case of `CCCCCCCNc1c2c(nc3ccccc13)-c1ccccc1C2` [N-Heptyl-N-11H-indeno-[1,2-b]-quinolin-10-yl)-amine], it took 4.3 µM to reach half-maximal inhibition against Acetylcholinesterase (IC50).

On Cholinesterase, `c1ccc(CNc2c3c(nc4ccccc24)-c2ccccc2C3)cc1` [N-benzyl-10H-indeno[1,2-b]quinolin-11-amine] returned a half-maximal inhibitory concentration (IC50) of 0.5 µM. On Acetylcholinesterase, this compound showed an IC50 of 7.1 µM and a Ki of 7.5 µM.

`CNc1c2c(nc3ccccc13)-c1ccccc1C2` [N-methyl-10H-indeno[1,2-b]quinolin-11-amine]: the concentration for half-maximal inhibition (IC50) against Cholinesterase was found to be 1.6 µM; at Acetylcholinesterase, 1.3 µM.
